Test results as given in patent publication US20090012045A1, “Methods of Treating Cell Proliferative Disorders” (RIGEL PHARMACEUTICALS, INC., priority 2007, published 2009).

Key:
786-0 = 786-0 (Renal Cancer)
HOP-92 = HOP-92 (Non-Small Cell Lung Cancer)
RPM1-8226 = RPM1-8226 (Leukemia)
HT29 = HT29 (Colon Cancer)
RXF 393 = RXF 393 (Renal Cancer)
SF-268 = SF-268 (CNS Cancer)
NCI-H460 = NCI-H460 (Non-Small Cell Lung Cancer)
SK-MEL-5 = SK-MEL-5 (Melanoma)
SN12C = SN12C (Renal Cancer)
EKVX = EKVX (Non-Small Cell Lung Cancer)
SF-295 = SF-295 (CNS Cancer)
LOX I MVI = LOX I MVI (Melanoma)
HCT-15 = HCT-15 (Colon Cancer)
UO-31 = UO-31 (Renal Cancer)
KM12 = KM12 (Colon Cancer)
U251 = U251 (CNS Cancer)
HOP-62 = HOP-62 (Non-Small Cell Lung Cancer)
SK-MEL-2 = SK-MEL-2 (Melanoma)
CCRF-CEM = CCRF-CEM (Leukemia)
PC-3 = assay: in vitro antiproliferation assay, Prostate Cancer; conditions: PC-3 (Prostate Cancer)
HL-60(TB) = HL-60(TB) (Leukemia)
HCT-116 = HCT-116 (Colon Cancer)
MDA-MB-435 = MDA-MB-435 (Breast Cancer)
COLO 205 = COLO 205 (Colon Cancer)
UACC-62 = UACC-62 (Melanoma)
BT-549 = BT-549 (Breast Cancer)
SR = SR (Leukemia)
NCI-H23 = NCI-H23 (Non-Small Cell Lung Cancer)
OVCAR-4 = OVCAR-4 (Ovarian Cancer)
M14 = M14 (Melanoma)
A549/ATCC = A549/ATCC (Non-Small Cell Lung Cancer)

COc1cc(Nc2ncc(F)c(Nc3ccc4c(n3)NC(=O)C(C)(C)O4)n2)cc(OC)c1OC.O=S(=O)(O)c1ccccc1 [Compound 1 (besylate salt), N4-(2,2-Dimethyl-3-oxo-4H-5-pyrid[1,4]oxazin-6-yl)-5-fluoro-N2-(3,4,5-trimethoxyphenyl)-2,4-pyrimidinediamine Benzenesulfonic Acid Salt]
GI50 (786-0): 0.873 µM
TGI (786-0): >1.00E−4
CC50 (786-0; read-out: LC50): > 100 µM
GI50 (HOP-92): 0.41 µM
CC50 (HOP-92; read-out: LC50): > 100 µM
GI50 (RPM1-8226): > 100 µM
TGI (RPM1-8226): >1.00E−4
CC50 (RPM1-8226; read-out: LC50): > 100 µM
GI50 (HT29): 2.19 µM
TGI (HT29): >1.00E−4
CC50 (HT29; read-out: LC50): > 100 µM
GI50 (RXF 393): 0.196 µM
TGI (RXF 393): 7.74E−7
CC50 (RXF 393; read-out: LC50): > 100 µM
GI50 (SF-268): 1.7 µM
TGI (SF-268): >1.00E−4
CC50 (SF-268; read-out: LC50): > 100 µM
TGI (NCI-H460): >1.00E−4
CC50 (NCI-H460; read-out: LC50): > 100 µM
GI50 (SK-MEL-5): > 100 µM
TGI (SK-MEL-5): >1.00E−4
CC50 (SK-MEL-5; read-out: LC50): > 100 µM
GI50 (SN12C): 0.698 µM
TGI (SN12C): >1.00E−4
CC50 (SN12C; read-out: LC50): > 100 µM
GI50 (EKVX): 1.66 µM
TGI (EKVX): >1.00E−4
CC50 (EKVX; read-out: LC50): > 100 µM
TGI (SF-295): >1.00E−4
CC50 (SF-295; read-out: LC50): > 100 µM
GI50 (LOX I MVI): 1.13 µM
TGI (LOX I MVI): 1.13E−6
CC50 (LOX I MVI; read-out: LC50): > 100 µM
TGI (HCT-15): >1.00E−4
CC50 (HCT-15; read-out: LC50): > 100 µM
GI50 (UO-31): 0.596 µM
TGI (UO-31): >1.00E−4
CC50 (UO-31; read-out: LC50): > 100 µM
GI50 (KM12): 0.355 µM
TGI (KM12): >1.00E−4
CC50 (KM12; read-out: LC50): > 100 µM
TGI (U251): >1.00E−4
CC50 (U251; read-out: LC50): > 100 µM
GI50 (HOP-62): 0.537 µM
TGI (HOP-62): >1.00E−4
CC50 (HOP-62; read-out: LC50): > 100 µM
GI50 (SK-MEL-2): > 100 µM
TGI (SK-MEL-2): >1.00E−4
CC50 (SK-MEL-2; read-out: LC50): > 100 µM
TGI (CCRF-CEM): >1.00E−4
CC50 (CCRF-CEM; read-out: LC50): > 100 µM
GI50 (PC-3): 3.07 µM
TGI (PC-3): >1.00E−4
CC50 (PC-3; read-out: LC50): > 100 µM
GI50 (HL-60(TB)): > 100 µM
TGI (HL-60(TB)): >1.00E−4
CC50 (HL-60(TB); read-out: LC50): > 100 µM
TGI (HCT-116): >1.00E−4
CC50 (HCT-116; read-out: LC50): > 100 µM
GI50 (MDA-MB-435): 3.62 µM
TGI (MDA-MB-435): >1.00E−4
CC50 (MDA-MB-435; read-out: LC50): > 100 µM
GI50 (COLO 205): 7.26 µM
TGI (COLO 205): >1.00E−4
CC50 (COLO 205; read-out: LC50): > 100 µM
TGI (UACC-62): >1.00E−4
CC50 (UACC-62; read-out: LC50): > 100 µM
GI50 (BT-549): 2.43 µM
TGI (BT-549): >1.00E−4
CC50 (BT-549; read-out: LC50): > 100 µM
GI50 (SR): 3.56 µM
TGI (SR): >1.00E−4
CC50 (SR; read-out: LC50): > 100 µM
TGI (NCI-H23): >1.00E−4
CC50 (NCI-H23; read-out: LC50): > 100 µM
GI50 (OVCAR-4): > 100 µM
TGI (OVCAR-4): >1.00E−4
CC50 (OVCAR-4; read-out: LC50): > 100 µM
GI50 (M14): > 100 µM
TGI (M14): >1.00E−4
CC50 (M14; read-out: LC50): > 100 µM
TGI (A549/ATCC): >1.00E−4
CC50 (A549/ATCC; read-out: LC50): > 100 µM
